Experimental data published in patent publication US12180193B2, “Accelerating fibrosarcoma protein degrading compounds and associated methods of use” (Arvinas Operations, Inc., priority 2020, dated 2024).
Read-outs that look alike come from different tables or passages of the source. One block for each compound: values may come before it.

Key:
[1] = biological target: T1, BRAF G466V (Homo sapiens, UniProt P15056, G466V); experiment: Cellular assay of target protein degradation, T-Rex 293 cells stably transfected with HA-BRAF G466V (HA immunofluorescence, high content imaging); format: cell-based
T1 construct: expressed in transfected cells
In short: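 Read-out is HA immunofluorescence by high content imaging, with Hoechst and phalloidin co-staining, giving DC50 and Dmax as a percentage of control. Compound exposure lasts 24 hours at 37° C over 30 nM to 3 pM in 0.1% DMSO, with doxycycline-induced HA-BRAF G466V.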

[2] = biological target: T2, BRAF V600E (Homo sapiens, UniProt P15056, V600E); experiment: Cellular assay of target protein degradation, T-Rex 293 cells stably transfected with HA-BRAF_V600E (HA immunofluorescence, high content imaging); format: cell-based
T2 construct: expressed in transfected cells
In short: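 Cells are plated with 1 ng/mL doxycycline and grown 24 h. Compound is then added (final 1 μM–0.1 nM, 0.1% DMSO) for another 24 h at 37 °C, followed by fixing, HA immunostaining and imaging to obtain DC50 and Dmax.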

[3] = half maximal degradation, T-Rex 293 HA-BRAF G466V; read-out: BRaf G466V DC50
[4] = maximum degradation observed, T-Rex 293 HA-BRAF G466V
[5] = half maximal degradation, T-Rex 293 HA-BRAF V600E; read-out: BRaf V600E DC50
[6] = maximum degradation observed, T-Rex 293 HA-BRAF V600E

T1 sequence (P15056 whole entry G466V): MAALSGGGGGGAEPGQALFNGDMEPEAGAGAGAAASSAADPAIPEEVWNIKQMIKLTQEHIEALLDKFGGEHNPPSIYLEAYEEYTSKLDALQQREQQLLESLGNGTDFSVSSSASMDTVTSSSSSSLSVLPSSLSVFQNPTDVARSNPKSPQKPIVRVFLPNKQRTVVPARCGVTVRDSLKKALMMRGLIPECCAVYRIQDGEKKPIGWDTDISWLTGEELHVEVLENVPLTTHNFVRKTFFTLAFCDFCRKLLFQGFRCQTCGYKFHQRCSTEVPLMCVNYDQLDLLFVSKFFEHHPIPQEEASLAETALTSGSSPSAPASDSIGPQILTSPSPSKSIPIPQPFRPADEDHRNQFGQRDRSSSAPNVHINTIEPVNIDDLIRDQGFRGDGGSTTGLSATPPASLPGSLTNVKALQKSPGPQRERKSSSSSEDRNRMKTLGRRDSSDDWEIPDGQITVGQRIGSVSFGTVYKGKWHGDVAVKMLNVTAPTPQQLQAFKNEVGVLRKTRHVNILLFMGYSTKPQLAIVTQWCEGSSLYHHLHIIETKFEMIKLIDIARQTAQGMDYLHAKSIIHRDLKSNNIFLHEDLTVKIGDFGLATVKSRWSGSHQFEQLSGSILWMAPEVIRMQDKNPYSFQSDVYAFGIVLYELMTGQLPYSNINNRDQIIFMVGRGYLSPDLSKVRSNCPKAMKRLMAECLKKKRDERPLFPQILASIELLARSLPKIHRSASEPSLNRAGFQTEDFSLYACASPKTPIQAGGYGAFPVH
T2 sequence (P15056 whole entry V600E): as the sequence (P15056 whole entry G466V) above, with V466G, V600E counted along it

SMILES: O=C1CC[C@@H](NC(=O)c2ccc(N3CCC(CN4CC5(C4)CN(c4ccc(-c6cnc7[nH]cc(C(=O)c8c(F)ccc(NS(=O)(=O)N9CC[C@@H](F)C9)c8F)c7c6)cc4)C5)CC3)cc2F)C(=O)N1 [Compound 30, 4-(4-{[6-(4-{3-[2,6-difluoro-3-({[(3R)-3-fluoropyrrolidin-1-yl]sulfonyl}amino)benzoyl]-1H-pyrrolo[2,3-b]pyridin-5-yl}phenyl)-2,6-diazaspiro[3.3]heptan-2-yl]methyl}piperidin-1-yl)-N-[(3R)-2,6-dioxopiperidin-3-yl]-2-fluorobenzamide]
DC50 [1, 3]: 10 to 30 nM | Dmax [1, 4]: < 35% | DC50 [2, 5]: > 500 nM

SMILES: O=C1CC[C@H](NC(=O)c2ccc(N3CC4(CN(CC5CCN(c6ccc(-c7cnc8[nH]cc(C(=O)c9c(F)ccc(NS(=O)(=O)N%10CC[C@@H](F)C%10)c9F)c8c7)cc6)CC5)C4)C3)cc2F)C(=O)N1 [Compound 31, 4-(6-{[1-(4-{3-[2,6-difluoro-3-({[(3R)-3-fluoropyrrolidin-1-yl]sulfonyl}amino)benzoyl]-1H-pyrrolo[2,3-b]pyridin-5-yl}phenyl)piperidin-4-yl]methyl}-2,6-diazaspiro[3.3]heptan-2-yl)-N-[(3S)-2,6-dioxopiperidin-3-yl]-2-fluorobenzamide]
DC50 [1, 3]: < 1 nM | Dmax [1, 4]: 35 to 70% | DC50 [2, 5]: 5 to 50 nM | Dmax [2, 6]: 35 to 70%

SMILES: O=C1CCC(N2Cc3cc(C(O)CN4CCN(c5ccc(-c6cnc7[nH]cc(C(=O)c8c(F)ccc(NS(=O)(=O)N9CC[C@@H](F)C9)c8F)c7c6)cc5)CC4)ccc3C2=O)C(=O)N1 (stereo partly drawn) [Compound 32, (3R)-N-(3-{5-[4-(4-{2-[2-(2,6-dioxopiperidin-3-yl)-1-oxo-2,3-dihydro-1H-isoindol-5-yl]-2-hydroxyethyl}piperazin-1-yl)phenyl]-1H-pyrrolo[2,3-b]pyridin-3-carbonyl}-2,4-difluorophenyl)-3-fluoropyrrolidine-1-sulfonamide]
DC50 [1, 3]: 1 to 10 nM | Dmax [1, 4]: 35 to 70% | DC50 [2, 5]: < 5 nM | Dmax [2, 6]: 35 to 70%

SMILES: O=C1CC[C@H](NC(=O)c2ccc(C3CCN(CC4CCN(c5ccc(-c6cnc7[nH]cc(C(=O)c8c(F)ccc(NS(=O)(=O)N9CC[C@@H](F)C9)c8F)c7c6)cc5)CC4)CC3)cc2F)C(=O)N1 [Compound 33, 4-(1-{[1-(4-{3-[2,6-difluoro-3-({[(3R)-3-fluoropyrrolidin-1-yl]sulfonyl}amino)benzoyl]-1H-pyrrolo[2,3-b]pyridin-5-yl}phenyl)piperidin-4-yl]methyl}piperidin-4-yl)-N-[(3S)-2,6-dioxopiperidin-3-yl]-2-fluorobenzamide]
DC50 [1, 3]: 1 to 10 nM | Dmax [1, 4]: 35 to 70% | DC50 [2, 5]: 5 to 50 nM | Dmax [2, 6]: > 70%

SMILES: O=C1CC[C@H](N2Cc3cc(N4CCC(OC5CCN(c6ccc(-c7cnc8[nH]cc(C(=O)c9c(F)ccc(NS(=O)(=O)N%10CC[C@@H](F)C%10)c9F)c8c7)cc6)CC5)CC4)ccc3C2=O)C(=O)N1 [Compound 34, (3R)-N-{3-[5-(4-{4-[(1-{2-[(3S)-2,6-dioxopiperidin-3-yl]-1-oxo-2,3-dihydro-1H-isoindol-5-yl}piperidin-4-yl)oxy]piperidin-1-yl}phenyl)-1H-pyrrolo [2,3-b]pyridine-3-carbonyl]-2,4-difluorophenyl}-3-fluoropyrrolidine-1-sulfonamide]
DC50 [1, 3]: 1 to 10 nM | Dmax [1, 4]: 35 to 70% | DC50 [2, 5]: 50 to 500 nM | Dmax [2, 6]: 35 to 70%

SMILES: O=C1CCC(N2Cc3cc(C4CCN(CC5CCN(c6ccc(-c7cnc8[nH]cc(C(=O)c9c(F)ccc(NS(=O)(=O)N%10CC[C@@H](F)C%10)c9F)c8c7)cc6F)CC5)CC4)ccc3C2=O)C(=O)N1 (stereo partly drawn) [Compound 36, (3R)—N-[3-(5-[4-[4-([4-[2-(2,6-dioxopiperidin-3-yl)-1-oxo-3H-isoindol-5-yl]piperidin-1-yl]methyl)piperidin-1-yl]-3-fluorophenyl]-1H-pyrrolo[2,3-b]pyridine-3-carbonyl)-2,4-difluorophenyl]-3-fluoropyrrolidine-1-sulfonamide]
Dmax [1, 4]: 35 to 70% | DC50 ([1]; read-out: BRaf G466V DC50; half maximal degradation, T-Rex 293 HA-BRAF G466V): < 1 nM | Dmax [2, 6]: 35 to 70% | DC50 ([2]; read-out: BRaf V600E DC50; half maximal degradation, T-Rex 293 HA-BRAF V600E): 5 to 50 nM

Other lines, results leading:

DC50 [1, 3]: 1 to 10 nM | Dmax [1, 4]: > 70% | DC50 [2, 5]: 5 to 50 nM | Dmax [2, 6]: 35 to 70%
SMILES: O=C1CC[C@@H](N2Cc3cc(N4CCC(OC5CCN(c6ccc(-c7cnc8[nH]cc(C(=O)c9c(F)ccc(NS(=O)(=O)N%10CC[C@@H](F)C%10)c9F)c8c7)cc6)CC5)CC4)ccc3C2=O)C(=O)N1 [Compound 35, (3R)-N-{3-[5-(4-{4-[(1-{2-[(3R)-2,6-dioxopiperidin-3-yl]-1-oxo-2,3-dihydro-1H-isoindol-5-yl}piperidin-4-yl)oxy]piperidin-1-yl}phenyl)-1H-pyrrolo [2,3-b]pyridine-3-carbonyl]-2,4-difluorophenyl}-3-fluoropyrrolidine-1-sulfonamide]

DC50 [1, 3]: 1 to 10 nM | Dmax [1, 4]: 35 to 70% | DC50 [2, 5]: 5 to 50 nM | Dmax [2, 6]: < 35%
SMILES: O=C1CC[C@@H](NC(=O)c2ccc(N3CC4(CN(CC5CCN(c6ccc(-c7cnc8[nH]cc(C(=O)c9c(F)ccc(NS(=O)(=O)N%10CC[C@@H](F)C%10)c9F)c8c7)cc6)CC5)C4)C3)cc2F)C(=O)N1 [Compound 37, 4-(6-{[1-(4-{3-[2,6-difluoro-3-({[(3R)-3-fluoropyrrolidin-1-yl]sulfonyl}amino)benzoyl]-1H-pyrrolo[2,3-b]pyridin-5-yl}phenyl)piperidin-4-yl]methyl}-2,6-diazaspiro[3.3]heptan-2-yl)-N-[(3R)-2,6-dioxopiperidin-3-yl]-2-fluorobenzamide]

DC50 [1, 3]: < 1 nM | Dmax [1, 4]: 35 to 70% | DC50 [2, 5]: 5 to 50 nM | Dmax [2, 6]: 35 to 70%
SMILES: O=C1CC[C@H](N2Cc3cc(/C=C/CN4CC5(C4)CN(c4ccc(-c6cnc7[nH]cc(C(=O)c8c(F)ccc(NS(=O)(=O)N9CC[C@@H](F)C9)c8F)c7c6)cc4)C5)ccc3C2=O)C(=O)N1 [Compound 38, (3R)-N-{3-[5-(4-{6-[(2E)-3-{2-[(3S)-2,6-dioxopiperidin-3-yl]-1-oxo-2,3-dihdyro-1H-isoindol-5-yl}prop-2-en-1-yl]-2,6-diazaspiro[3.3]heptan-2-yl}phenyl)-1H-pyrrolo[2,3-b]pyridine-3-carbonyl]-2,4-difluorophenyl}-3-fluoropyrrolidine-1-sulfonamide]

DC50 [1, 3]: < 1 nM | Dmax [1, 4]: 35 to 70% | DC50 [2, 5]: 5 to 50 nM | Dmax [2, 6]: 35 to 70%
SMILES: O=C1CC[C@@H](N2Cc3cc(/C=C/CN4CC5(C4)CN(c4ccc(-c6cnc7[nH]cc(C(=O)c8c(F)ccc(NS(=O)(=O)N9CC[C@@H](F)C9)c8F)c7c6)cc4)C5)ccc3C2=O)C(=O)N1 [Compound 39, (3R)-N-{3-[5-(4-{6-[(2E)-3-{2-[(3R)-2,6-dioxopiperidin-3-yl]-1-oxo-2,3-dihydro-1H-isoindol-5-yl}prop-2-en-1-yl]-2,6-diazaspiro[3.3]heptan-2-yl}phenyl)-1H-pyrrolo[2,3-b]pyridine-3-carbonyl]-2,4-difluorophenyl}-3-fluoropyrrolidine-1-sulfonamide]

DC50 [1, 3]: 1 to 10 nM | Dmax [1, 4]: 35 to 70% | DC50 [2, 5]: 5 to 50 nM | Dmax [2, 6]: 35 to 70%
SMILES: O=C1CC[C@H](N2Cc3cc(N4CCC(CN5CCN(c6ccc(-c7cnc8[nH]cc(C(=O)c9c(F)ccc(NS(=O)(=O)N%10CC[C@@H](F)C%10)c9F)c8c7)cc6)CC5)CC4)c(F)cc3C2=O)C(=O)N1 [Compound 40, (3R)-N-{3-[5-(4-{4-[(1-{2-[(3S)-2,6-dioxopiperidin-3-yl]-6-fluoro-1-oxo-2,3-dihydro-1H-isoindol-5-yl}piperidin-4-yl)methyl]piperazin-1-yl}phenyl)-1H-pyrrolo[2,3-b]pyridine-3-carbonyl]-2,4-difluorophenyl}-3-fluoropyrrolidine-1-sulfonamide]
